{"source": "patent US20190224222A1", "about": "“METHOD OF INHIBITING QUORUM SENSING USING D-GALACTOSE” (Seoul National University R&DB Foundation, priority 2014, published 2019)", "key": {"S. oxalis (So) biofilm": {"system": "S. oxalis (So) biofilm", "experiment": "S. oxalis biofilm formation, crystal violet staining", "type": "cell-based, Streptococcus oxalis (ATCC 9811)", "details": "for OD590: So on saliva-coated glass slip, sugar 2 mM, So control 0.59", "description": "2 mL (2×10^7/ml) of the culture broth of a representative cariogenic bacterium S. mutans (Sm) and 2 mL (2×10^7/ml) of the culture broth of one of normal oral flora, S. oxalis (SO) were added to a saliva-coated glass slip (round, 12 mm radius), respectively and cultured with 0 mM or 2 mM of D-galactose to form biofilms. […] Further, the biofilms were stained with fluorescent materials using the live/dead-BacLight viability kit (Invitrogen, Grand Island, N.Y., USA), followed by analysis. For comparison, 2 μM of the furanone compound was used instead of D-galactose to perform the same test."}, "[1]": {"system": "T. forsythia (Tf) biofilm", "experiment": "Tf biofilm formation induced by Fn AI-2, crystal violet staining", "type": "cell-based, T. forsythia (ATCC 43037)", "details": "for OD590 nm: Tf + Fn AI-2 10% (v/v), sugar 2 mM, 48-72 h, Tf/AI-2 control 0.48, Tf 0.32; for inhibitory effect on Tf biofilm formation, in words: crystal violet, sugars 2 mM", "description": "To test biofilm formation by Tf, a test was performed in the same manner as in Example 3. That is, a Tf culture broth (2 ml; a negative control group, the number of bacteria: 2×10^8/ml), a mixture of Tf culture broth (2 ml) and Fn AI-2 (10% (v/v) with respect to the total volume of the mixture with Tf culture broth), or a mixture of Tf culture broth (2 ml) and Fn AI-2 (10% (v/v) with respect to the total volume of the mixture with Tf culture broth) and D-gal (2 mM) was added to a 24-well plate with a glass slip (round, 12 mm radius), and cultured under anaerobic conditions for 48-72 hours. For comparison, 2 mM of D-rib or 2 μM of the furanone compound [(5Z)-4-bromo-5-(bromomethylene)-2(5H)-furanone] was used instead of D-gal to perform the same test.\nBiofilms formed on the cover slips were stained with 10% crystal violet [Tris(4-(dimethylamino)phenyl)methylium chloride] for 10 minutes, washed three times with PBS, and destained with 1 ml of acetone-alcohol (20:80, vol/vol). The optical density at 590 nm of the destaining solution containing crystal violet was measured using a microplate reader (a Wallac Victor3 microtiter, PerkinElmer Life Sciences, Waltham, Mass.). The smaller optical density (OD590) measured at 590 nm represents more inhibition of biofilm formation, that is, higher quorum sensing inhibitory effect of the used QSI candidate."}, "[2]": {"system": "T. forsythia (Tf) biofilm", "experiment": "Tf biofilm formation induced by Fn secretory material, transwell, crystal violet", "type": "cell-based", "details": "for OD590: Fn upper / Tf lower chamber, sugar 2 mM, 48-72 h, Fn/Tf control 0.55, Tf alone 0.17", "description": "(§1) In order to examine efficacies of quorum sensing inhibitor (QSI) candidates on biofilm formation of periodontopathogenic bacteria which is induced by a secretory material of F. nucleatum (Fn), a test was performed using a transwell system. AI-2 naturally secreted by Fn is contained in the secretory material of Fn. Therefore, in the test using the transwell system, Fn AI-2 was not directly added to bacteria, but Fn was put in an upper chamber and Pg or Tf was put in a lower chamber. Biofilms cultured and formed in the presence or absence of QSI candidates were stained with crystal violet, followed by analysis. These conditions are to evaluate whether Pg or Tf biofilm formation is influenced by not a purified AI-2 but an AI-2-containing secretory material naturally secreted by Fn, and whether QSI candidates such as D-gal is able to inhibit the biofilm formation if the biofilm is then formed.\n(§2) More specifically, the transwell system (24-well) has an upper chamber and a lower chamber which are separated from each other by a membrane of 0.4 μm. 500 μl of F. nucelatum (Fn) culture broth (the number of bacteria: 2×10^7 CFU/ml) was cultured in the upper chamber. A glass slip was placed in the lower chamber, and then the same number of P. gingivalis(Pg) or T. forsythia(Tf) was inoculated in 1 ml of medium and cultured for 48-72 hours. The same QSI candidates were added to the upper and lower chambers. As the QSI candidates, 2 mM of sugar (D-rib or D-gal) was used and 2 μM of the furanone compound [(5Z)-4-bromo-5-(bromomethylene)-2(5H)-furanone] was used. In order to examine whether biofilm formation of the bacteria in the lower chamber is influenced by Fn secretory material and QSI candidates, the biofilms formed on the glass slip were stained with crystal violet, and then quantified (see Examples 3 to 5)."}, "[3]": {"system": "P. gingivalis (Pg) biofilm", "experiment": "Pg biofilm formation induced by Fn secretory material, transwell, crystal violet", "type": "cell-based", "details": "for OD590 nm: Fn upper / Pg lower chamber, sugar 2 mM, 48-72 h, Fn/Pg control 0.57, Pg alone 0.30", "description": "as §1, §2"}, "[4]": {"system": "T. forsythia (Tf) biofilm", "experiment": "Tf biofilm formation induced by Fn AI-2, fluorescence staining (confocal)", "type": "cell-based, T. forsythia (ATCC 43037)", "details": "D-rib or D-gal 200 mM", "description": "Further, inhibitory effects of individual QSI candidates on Tf biofilm formation induced by Fn AI-2 were examined by fluorescence staining. 2 ml of Tf culture broth (the number of bacteria: 2×10^8/ml) was used, and Fn AI-2 was used in a volume of 10% (v/v) with respect to the total volume of a mixture with Tf culture broth. As the QSI candidates, 200 mM of D-rib or D-gal was used, and 20 μM of the furanone compound was used. Biofilms formed on the cover slip were stained with fluorescent materials using the live/dead-BacLight viability kit (Invitrogen, Grand Island, N.Y., USA) and observed using a confocal microscope (Carl Zeiss, LSM 700). […] Fluorescence intensities of the obtained individual fluorescence images were quantified using ZEN 2010 program of a confocal microscope, and shown in FIG. 9."}, "Fn AI-2 activity": {"system": "Fn AI-2 activity", "experiment": "AI-2 activity, bioluminescence of reporter strain V. harveyi BB170", "type": "cell-based, Vibrio harveyi BB170 (ATCC BAA-1117)", "details": "for Bioluminescence: V. harveyi BB170 + Fn AI-2 10% (v/v), sugar 20 mM, lower = higher inhibition, Fn/AI-2 control 10712312, BB170 alone 856873", "description": "The quorum sensing autoinducer, AI-2 stimulates luciferase operon (lux genes) of V. harveyi to induce luciferase expression, resulting in luminescence. Therefore, inhibition of AI-2 activity was confirmed by measuring bioluminescence by AI-2. Bioluminescence mediated by AI-2 was determined using the AI-2 reporter strain V. harveyi BB170. V. harveyi BB170 was cultured in AB medium overnight at 30° C. until OD600 nm=0.7. The bacteria were washed with fresh AB medium and diluted to a concentration of 10^6 cells/ml. Thereafter, V. harveyi BB170 culture broth (5 ml) was mixed with a partially purified F. nucleatum AI-2(′Fn AI-2′) and D-gal (0 or 20 mM) or D-rib (0 or 20 mM). The partially purified Fn AI-2 was obtained by partially purifying the Fn culture broth using a C18 Sep-Pak reverse-phase column (Waters Co., Milford, Mass.). The Fn culture broth or the partially purified Fn AI-2 was added such that a final concentration of AI-2 in the mixture was 10% (vol/vol). 10% (v/v) of Fn AI-2 corresponds to the Fn bacterial number of 1.9×10^8. Then, culture was performed at 30° C. for 1-8 hours. The bioluminescence was measured using a luminometer (GloMax1—Multi detection System, Promega, Madison, Wis.). BB170 is one of V. harveyi bacteria which have a characteristic of recognizing AI-2 to show bioluminescence. The higher bioluminescence value thus measured represents higher AI-2 activity."}, "[5]": {"details": "D-gal 2 mM compared to D-rib 2 mM"}}}
{"smiles": "O=C[C@H](O)[C@@H](O)[C@@H](O)[C@H](O)CO", "note": "[D-gal, D-galactose]", "values": [{"measurement": "OD590", "setting": "S. oxalis (So) biofilm", "value": 1.07}, {"measurement": "effect on So biofilm formation, in words", "setting": "S. oxalis (So) biofilm; crystal violet, D-gal 2 mM compared to D-rib and the furanone compound", "value": "did not inhibit but increased biofilm formation"}, {"measurement": "OD590 nm", "setting": "[1]", "value": 0.2}, {"measurement": "inhibitory effect on Tf biofilm formation, in words", "setting": "[1]", "value": "excellent inhibitory effect"}, {"measurement": "inhibitory effect on Tf biofilm formation induced by Fn secretory material, in words", "setting": "[2]; [5]", "value": "remarkably excellent inhibitory effect, compared to D-rib"}, {"measurement": "OD590", "setting": "[2]", "value": 0.36}, {"measurement": "inhibitory effect on Pg biofilm formation induced by Fn secretory material, in words", "setting": "[3]; [5]", "value": "remarkably excellent inhibitory effect, compared to D-rib"}, {"measurement": "OD590 nm", "setting": "[3]", "value": 0.45}, {"measurement": "inhibitory effect on Tf biofilm formation, in words", "setting": "[4]", "value": "most excellent inhibitory effect"}, {"measurement": "bioluminescence relative to the bioluminescence upon addition of D-rib", "setting": "Fn AI-2 activity; D-gal 20 mM vs D-rib 20 mM", "value": "about 20%"}, {"measurement": "Bioluminescence", "setting": "Fn AI-2 activity", "value": 1138752}, {"measurement": "quorum sensing inhibitory efficacy relative to D-ribose, in words", "setting": "Fn AI-2 activity; general statement of the specification", "value": "twice higher than that of D-ribose"}]}
{"smiles": "O=C[C@H](O)[C@H](O)[C@H](O)CO", "note": "[D-rib, D-ribose, reference compound]", "values": [{"measurement": "OD590", "setting": "S. oxalis (So) biofilm", "value": 0.85}, {"measurement": "OD590 nm", "setting": "[1]", "value": 0.41}, {"measurement": "inhibitory effect on Tf biofilm formation, in words", "setting": "[1]", "value": "significant inhibitory effect"}, {"measurement": "OD590", "setting": "[2]", "value": 0.69}, {"measurement": "OD590 nm", "setting": "[3]", "value": 0.58}, {"measurement": "inhibitory effect on Tf biofilm formation, in words", "setting": "[4]", "value": "inhibited"}, {"measurement": "Bioluminescence", "setting": "Fn AI-2 activity", "value": 5481975}]}
